Laboratory results reported in ChEMBL document CHEMBL3407389, “1,3,4-Thiadiazoles: a potent multi targeted pharmacological scaffold” (Eur J Med Chem, 2015).
Values after ≈ are worked out from the molar mass of the structure shown. One block for each molecule: values may come before it.

Assays:
Cyclooxygenase = Cyclooxygenase (Homo sapiens, UniProt P35354+P23219); assay: Inhibition of CO (unknown origin)
[1] = molecular target: T1, Polyunsaturated fatty acid 5-lipoxygenase (Homo sapiens, UniProt P09917); assay: Inhibition of 5-LO (unknown origin)
T1 sequence (P09917 whole entry): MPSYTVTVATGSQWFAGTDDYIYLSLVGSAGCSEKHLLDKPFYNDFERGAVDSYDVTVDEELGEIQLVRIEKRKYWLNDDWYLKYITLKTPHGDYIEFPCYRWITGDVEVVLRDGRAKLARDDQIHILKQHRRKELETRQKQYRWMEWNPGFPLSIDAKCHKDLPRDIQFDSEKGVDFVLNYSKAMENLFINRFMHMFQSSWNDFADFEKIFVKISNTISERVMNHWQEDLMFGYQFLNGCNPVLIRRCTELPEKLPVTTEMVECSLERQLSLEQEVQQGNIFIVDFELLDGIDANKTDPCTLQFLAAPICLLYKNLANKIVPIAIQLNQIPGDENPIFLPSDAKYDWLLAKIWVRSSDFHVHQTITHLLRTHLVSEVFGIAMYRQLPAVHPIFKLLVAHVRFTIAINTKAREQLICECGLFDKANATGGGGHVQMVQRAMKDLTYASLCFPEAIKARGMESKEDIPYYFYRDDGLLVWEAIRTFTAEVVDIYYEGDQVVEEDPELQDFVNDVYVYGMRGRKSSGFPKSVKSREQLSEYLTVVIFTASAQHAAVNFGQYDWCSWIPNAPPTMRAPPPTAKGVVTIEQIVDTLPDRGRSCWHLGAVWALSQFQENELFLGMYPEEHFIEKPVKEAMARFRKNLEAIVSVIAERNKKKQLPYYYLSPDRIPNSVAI

Mus musculus [2] = species: Mus musculus; assay: Anticonvulsant activity in mouse assessed as protection against shock-induced seizures by MES test; type: functional
Mus musculus [3] = species: Mus musculus; assay: Anticonvulsant activity in mouse by MES test; type: functional
Helicobacter pylori [4] = assay: Antimicrobial activity against Helicobacter pylori at 1 ug/disc; type: functional; conditions: read-out: IZ
Helicobacter pylori [5] = assay: Antimicrobial activity against Helicobacter pylori by disc diffusion method; type: functional
Helicobacter pylori [6] = assay: Potency index, ratio of IZ for compound to IZ for metronidazole against Helicobacter pylori by disc diffusion method; type: functional
Carbonic anhydrase 9 = Carbonic anhydrase 9 (Homo sapiens, UniProt Q16790); assay: Inhibition of human carbonic anhydrase 9
Carbonic anhydrase = Carbonic anhydrase (Bos taurus, UniProt P00921+Q95323+P18915+Q3SZX4); assay: Inhibition of bovine carbonic anhydrase 5; type: protein assay
Carbonic anhydrase 1 = Carbonic anhydrase 1 (Homo sapiens, UniProt P00915); assay: Inhibition of human carbonic anhydrase 1
Carbonic anhydrase 2 = Carbonic anhydrase 2 (Homo sapiens, UniProt P00918); assay: Inhibition of human carbonic anhydrase 2
[7] = tested on: Human immunodeficiency virus 1; assay: Antiviral activity against HIV1 3B by MTT assay; type: functional, organism-based; conditions: Human immunodeficiency virus 1, 3B
[8] = tested on: Human immunodeficiency virus 2; assay: Antiviral activity against HIV2 ROD by MTT assay; type: functional, organism-based; conditions: Human immunodeficiency virus 2, ISOLATE ROD
[9] = tested on: Human immunodeficiency virus 2; assay: Antiviral activity against HIV2 infected in human MT4 cells; type: functional, organism-based; conditions: Human immunodeficiency virus 2, MT4
[10] = tested on: Human immunodeficiency virus 1; assay: Antiviral activity against HIV1 infected in human MT4 cells; type: functional, organism-based; conditions: Human immunodeficiency virus 1, MT4

Sequence of Carbonic anhydrase 1 (P00915 whole entry): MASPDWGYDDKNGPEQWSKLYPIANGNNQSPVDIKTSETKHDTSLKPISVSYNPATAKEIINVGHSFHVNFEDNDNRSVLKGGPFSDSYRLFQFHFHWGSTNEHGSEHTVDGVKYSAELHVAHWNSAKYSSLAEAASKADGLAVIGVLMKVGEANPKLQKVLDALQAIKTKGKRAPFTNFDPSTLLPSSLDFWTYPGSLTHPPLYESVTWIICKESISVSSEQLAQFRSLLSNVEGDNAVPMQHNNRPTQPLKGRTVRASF

- IC50 (Cyclooxygenase): 800 nM
- IC50 [1]: 2800 nM
Structure (SMILES): CC(C)(C)c1cc(-c2n[nH]c(=S)s2)cc(C(C)(C)C)c1O.C[N+](C)(C)CCO

Structure (SMILES): Clc1ccc(Nc2nnc(-c3ccncc3)s2)cc1
- Activity (Mus musculus [2]): 100%

Structure (SMILES): CNc1nnc(-c2ccccc2-c2ccccc2)s1
- ED50 (Mus musculus [3]): 18 mg/kg

Structure (SMILES): Cn1c([N+](=O)[O-])cnc1-c1nnc(S)s1
- zone of inhibition at 1 µg/disc (Helicobacter pylori [4]): 7.7 mm

Structure (SMILES): CC1CN(c2nnc(-c3ncc([N+](=O)[O-])n3C)s2)CC(C)N1 (centres undefined)
- inhibition zone (IZ) (Helicobacter pylori [5]): 30.9 mm
- fold change (FC) (Helicobacter pylori [6]): 5

- Ki (Carbonic anhydrase 9): 6 nM
- Ki (Carbonic anhydrase): 2 nM
- Ki (Carbonic anhydrase 1): 3 nM
- Ki (Carbonic anhydrase 2): 0.2 nM
Structure (SMILES): NS(=O)(=O)c1nnc(NS(=O)(=O)c2ccc(-[n+]3ccccc3)cc2)s1

Structure (SMILES): O=C(COc1ccc2ccccc2c1)NCc1nnc(Nc2ccccc2)s1
- EC50 [7]: 0.961 µg/mL (≈ 2.46 µM)
- EC50 [8]: 0.961 µg/mL (≈ 2.46 µM)

- EC50 [9]: 1.97 µg/mL (≈ 9.11 µM)
- EC50 [10]: 1.97 µg/mL (≈ 9.11 µM)
Structure (SMILES): c1ccc(C2=Nn3cnnc3SC2)cc1

- EC50 [9]: 9.9 µg/mL (≈ 25.1 µM)
- EC50 [10]: 23.9 µg/mL (≈ 60.5 µM)
Structure (SMILES): Cc1ccc(S(=O)(=O)NCc2nnc(Nc3ccc(Cl)cc3)s2)cc1

Structure (SMILES): Cc1ncc([N+](=O)[O-])n1CCO [METRONIDAZOLE]
- inhibition zone (IZ) (Helicobacter pylori [5]): 6 mm
- zone of inhibition at 1 µg/disc (Helicobacter pylori [4]): 16.3 mm
